Substitutions are numbered along the chain they refer to.
Key:
Format in all cases: cell-based
Settings in all cases: positive = increase, negative = decrease of activity
[1] = target: T1, GluD2-D535E (Rattus norvegicus, UniProt Q63226, D535E); assay: TEVC of constitutive current, Xenopus oocytes expressing GluD2-D535E
T1 construct: expressed in transfected cells; host or cells: Xenopus laevis oocytes injected with cRNA
T1 sequence (Q63226 24-1007 D535E): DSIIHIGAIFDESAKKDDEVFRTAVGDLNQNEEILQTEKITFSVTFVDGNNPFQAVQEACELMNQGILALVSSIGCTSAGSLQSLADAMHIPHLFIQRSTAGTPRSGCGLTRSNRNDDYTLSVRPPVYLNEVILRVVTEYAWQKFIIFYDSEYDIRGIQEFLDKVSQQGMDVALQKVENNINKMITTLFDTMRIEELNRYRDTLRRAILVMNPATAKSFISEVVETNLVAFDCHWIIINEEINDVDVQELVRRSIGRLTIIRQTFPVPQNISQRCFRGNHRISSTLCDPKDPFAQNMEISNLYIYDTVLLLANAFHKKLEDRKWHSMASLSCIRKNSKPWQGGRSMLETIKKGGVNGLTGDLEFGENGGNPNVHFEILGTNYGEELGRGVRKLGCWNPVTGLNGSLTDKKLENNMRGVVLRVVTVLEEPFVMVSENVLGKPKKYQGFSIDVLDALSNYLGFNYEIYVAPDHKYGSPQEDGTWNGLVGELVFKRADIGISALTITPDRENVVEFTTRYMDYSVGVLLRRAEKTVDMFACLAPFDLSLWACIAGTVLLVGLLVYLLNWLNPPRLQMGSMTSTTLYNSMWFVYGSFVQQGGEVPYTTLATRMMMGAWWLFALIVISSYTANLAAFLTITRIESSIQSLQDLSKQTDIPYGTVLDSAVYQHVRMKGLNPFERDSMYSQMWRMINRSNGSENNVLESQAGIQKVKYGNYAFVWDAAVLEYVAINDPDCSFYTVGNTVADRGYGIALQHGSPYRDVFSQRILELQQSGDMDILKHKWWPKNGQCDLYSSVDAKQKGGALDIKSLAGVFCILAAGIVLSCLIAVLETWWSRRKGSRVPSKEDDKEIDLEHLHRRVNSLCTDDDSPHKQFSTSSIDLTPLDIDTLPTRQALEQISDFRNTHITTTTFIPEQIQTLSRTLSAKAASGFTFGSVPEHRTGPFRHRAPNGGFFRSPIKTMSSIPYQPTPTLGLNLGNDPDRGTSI

[2] = target: T2, GluD2-S646P (Rattus norvegicus, UniProt Q63226, S646P); assay: TEVC of constitutive current, Xenopus oocytes expressing GluD2-S646P
T2 construct: expressed in transfected cells; host or cells: Xenopus laevis oocytes injected with cRNA
T2 sequence (Q63226 24-1007 S646P): T1 sequence (Q63226 24-1007 D535E) with E512D, S623P

[3] = target: T3, GluD1-N651S (Homo sapiens, UniProt Q9ULK0, N651S); assay: TEVC of constitutive current, Xenopus oocytes expressing GluD1-N651S
T3 construct: expressed in transfected cells; host or cells: Xenopus laevis oocytes injected with cRNA
T3 sequence (Q9ULK0 21-1009 N651S): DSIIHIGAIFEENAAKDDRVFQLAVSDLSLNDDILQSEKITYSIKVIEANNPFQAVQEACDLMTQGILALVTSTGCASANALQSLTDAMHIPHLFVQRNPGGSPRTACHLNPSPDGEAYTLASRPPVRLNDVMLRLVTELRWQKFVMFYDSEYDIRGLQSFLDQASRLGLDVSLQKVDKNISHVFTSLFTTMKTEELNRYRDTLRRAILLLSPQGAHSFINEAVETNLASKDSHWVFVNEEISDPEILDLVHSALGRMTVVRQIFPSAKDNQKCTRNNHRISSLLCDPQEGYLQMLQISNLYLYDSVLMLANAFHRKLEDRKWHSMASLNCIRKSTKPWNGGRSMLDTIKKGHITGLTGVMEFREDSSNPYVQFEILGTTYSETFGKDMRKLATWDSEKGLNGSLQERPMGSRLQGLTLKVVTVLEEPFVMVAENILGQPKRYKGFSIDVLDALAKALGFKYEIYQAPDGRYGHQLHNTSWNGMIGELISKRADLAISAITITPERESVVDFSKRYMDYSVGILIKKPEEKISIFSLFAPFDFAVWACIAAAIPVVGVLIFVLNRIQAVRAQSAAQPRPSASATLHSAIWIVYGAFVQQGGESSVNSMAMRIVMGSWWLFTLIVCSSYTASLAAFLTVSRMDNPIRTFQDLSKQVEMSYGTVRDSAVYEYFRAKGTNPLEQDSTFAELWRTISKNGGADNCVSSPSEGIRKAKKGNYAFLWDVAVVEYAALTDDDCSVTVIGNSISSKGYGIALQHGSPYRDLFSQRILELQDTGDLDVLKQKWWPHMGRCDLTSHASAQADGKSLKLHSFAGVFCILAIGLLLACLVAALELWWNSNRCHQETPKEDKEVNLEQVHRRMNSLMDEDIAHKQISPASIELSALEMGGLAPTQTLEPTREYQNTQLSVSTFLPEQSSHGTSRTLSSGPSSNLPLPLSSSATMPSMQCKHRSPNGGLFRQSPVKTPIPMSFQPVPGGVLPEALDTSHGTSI

Row | D-Serine effect (Baseline −10 mM D-Serine) ([1]; 10 mM D-serine) | D-Serine effect (Baseline −10 mM D-Serine) ([2]; 10 mM D-serine) | D-Serine effect (Baseline −10 mM D-Serine) ([3]; 10 mM D-serine) | SMILES | Pentamidine effect (Baseline −100 μM Pentamidine) ([1]; 100 μM pentamidine) | Pentamidine effect (Baseline −100 μM Pentamidine) ([2]; 100 μM pentamidine) | Pentamidine effect (Baseline −100 μM Pentamidine) ([3]; 100 μM pentamidine)
1 | −5.8 ± 2.4 (12) nA | 5.2 ± 6.0 (11) nA | 7.6 ± 1.6 (10) nA | N[C@H](CO)C(=O)O [D-serine] | – | – | –
2 | – | – | – | N=C(N)c1ccc(OCCCCCOc2ccc(C(=N)N)cc2)cc1 [Pentamidine, pentamidine] | −0.67 ± 1.1 (12) nA | 6.5 ± 5.4 (11) nA | 38 ± 8.3 (10) nA

— article PMC10840383, “Clinical features, functional consequences, and rescue pharmacology of missense GRID1 and GRID2 human variants” (Human Molecular Genetics, 2023)
